Laboratory results published in PubChem BioAssay AID588658 (The Scripps Research Institute Molecular Screening Center, 2011).

Columns and labels:
[1] = test system: HT29 cells, phospho-p38 western blot, 24 h; assay: altered phosphorylated p38 MAPK amounts – HT29 cells, chemiluminescent western blot, powder samples, counter-screen for KLF5 inhibitor project, late-stage follow-up (AID 588658); settings: measured here: phospho-p38 fold change vs DMSO; at 10 µM
[2] = molecular target: Mitogen-activated protein kinase 14 (Homo sapiens) (UniProt Q16539); assay: as above; settings: HT29 cells, phospho-p38 western blot, 24 h; at 10 µM; stronger effect = higher value
Mitogen-activated protein kinase 14 (Homo sapiens), sequence (Q16539 whole entry, looked up): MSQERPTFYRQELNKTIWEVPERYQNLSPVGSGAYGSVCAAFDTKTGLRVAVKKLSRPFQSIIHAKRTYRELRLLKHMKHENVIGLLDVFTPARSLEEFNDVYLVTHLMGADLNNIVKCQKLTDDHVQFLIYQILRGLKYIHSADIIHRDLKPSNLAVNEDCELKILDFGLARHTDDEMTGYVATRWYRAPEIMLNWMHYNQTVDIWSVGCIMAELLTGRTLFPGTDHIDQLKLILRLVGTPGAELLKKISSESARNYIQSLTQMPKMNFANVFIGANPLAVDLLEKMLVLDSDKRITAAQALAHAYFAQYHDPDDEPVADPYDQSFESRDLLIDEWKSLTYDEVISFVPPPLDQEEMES

inhibition [2] | Structure (SMILES) | fold change [1]
-85.3% | CN(C(=O)COC(=O)/C=C/c1cccc([N+](=O)[O-])c1)C1CCS(=O)(=O)C1 (stereo unspecified) | 1.85
-285% | CN(C(=O)CNC(=O)/C=C/c1cccc(Cl)c1)C1CCS(=O)(=O)C1 (stereo unspecified) | 3.85
-293% | CN(C(=O)CNC(=O)/C=C/c1cccc(Cl)c1)C1CCS(=O)(=O)CC1 | 3.93
